According to US20090202596A1, “PHARMACEUTICAL COMPOSITIONS WITH BIOLOGICAL BARRIERS PERMEATION ENHANCING PROPERTIES” (FARMATRON LIMITED, priority 2006, published 2009):

Assay: In vitro solubilization kinetics in buffer solution
Assay type: physicochemical
Details: buffer pH 7.4, 37° C., HPLC
Protocol: Solubilization Kinetics of the Double Microemulsions of the Invention
The “in vitro” solubilization kinetics was determined in buffer solution (pH 7.4, 37° C.); sample of the double microemulsion under testing is dispersed in tubes filled with 50 ml of buffer solution and placed over a thermostated shaking plate; at predetermined time intervals samples of the solution were filtered and then ultra-centrifuged; drug concentration was determined by HPLC, data are reported in Table 2.

- Drug concentration (0.5 hr): 50 ng/mL
- Drug concentration (1 hr): 100 ng/mL
- Drug concentration (3 hr): 300 ng/mL
- Drug concentration (8 hr): 500 ng/mL
- Drug concentration (24 hr): 1500 ng/mL
SMILES: CCC(C)n1ncn(-c2ccc(N3CCN(c4ccc(OCC5COC(Cn6cncn6)(c6ccc(Cl)cc6Cl)O5)cc4)CC3)cc2)c1=O (centres unmarked) [Itraconazole pure dispersion, Itraconazole]
